Measurements published in ChEMBL document CHEMBL5357019, “Targeted Combination Therapies: A New Frontier in the Treatment of TP53 and KRAS Mutation-Associated Cancers” (2024).

How the values were obtained:
Format in all cases: functional
[1] = test system: NCI-H358; assay: Antitumor activity against human NCI-H358 cells assessed as inhibition of cell growth at 10 nM incubated for 72 hrs by Celltiter Glo assay relative to control
[2] = test system: MIA PaCa-2; assay: Antitumor activity against human MIA PaCa-2 cells assessed as inhibition of cell growth at 350 nM incubated for 72 hrs by Celltiter Glo assay
[3] = test system: SW837; assay: Antitumor activity against human SW837 cells assessed as inhibition of cell growth at 12 nM incubated for 72 hrs by Celltiter Glo assay relative to control
[4] = test system: NCI-H23; assay: Antitumor activity against human NCI-H23 cells assessed as inhibition of cell growth at 40 nM incubated for 72 hrs by Celltiter Glo assay relative to control
[5] = test system: SW837; assay: Antitumor activity against human SW837 cells xenografted in mouse assessed as tumor growth inhibition at 30 mg/kg, po administered once daily for 18 days relative to control; details: SW837, 432 h, time 18 day, read-out: TGI
[6] = test system: SW837; assay: Synergistic antitumor activity against human SW837 cells assessed as tumor regression at 60 mg/kg, po once daily for 18 days co-administered with sotorasib relative to control; details: time 18 day
[7] = test system: SW837; assay: Antitumor activity against human SW837 cells xenografted in mouse assessed as tumor growth inhibition at 60 mg/kg, po administered once daily for 18 days relative to control; details: SW837, 432 h, time 18 day, read-out: TGI
[8] = test system: NCI-H23; assay: Synergistic antitumor activity against human NCI-H23 cells assessed as inhibition of cell growth at 120 nM incubated for 72 hrs in presence of sotorasib by Celltiter Glo assay relative to control
[9] = test system: SW837; assay: Synergistic antitumor activity against human SW837 cells assessed as inhibition of cell growth at 1000 nM incubated for 72 hrs in presence of sotorasib by Celltiter Glo assay relative to control
[10] = test system: NCI-H23; assay: Antitumor activity against human NCI-H23 cells assessed as inhibition of cell growth at 120 nM incubated for 72 hrs by Celltiter Glo assay relative to control
[11] = test system: MIA PaCa-2; assay: Antitumor activity against human MIA PaCa-2 cells assessed as inhibition of cell growth at 1000 nM incubated for 72 hrs by Celltiter Glo assay
[12] = test system: NCI-H358; assay: Antitumor activity against human NCI-H358 cells assessed as inhibition of cell growth at 300 nM incubated for 72 hrs by Celltiter Glo assay relative to control
[13] = test system: SW837; assay: Antitumor activity against human SW837 cells assessed as inhibition of cell growth at 1000 nM incubated for 72 hrs by Celltiter Glo assay relative to control
[14] = test system: MIA PaCa-2; assay: Synergistic antitumor activity against human MIA PaCa-2 cells assessed as inhibition of cell growth at 1000 nM incubated for 72 hrs in the presence of sotorasib by Celltiter Glo assay
[15] = test system: NCI-H358; assay: Synergistic antitumor activity against human NCI-H358 cells assessed as inhibition of cell growth at 300 nM incubated for 72 hrs in presence of sotorasib by Celltiter Glo assay relative to control
[16] = test system: SW837; assay: Synergistic antitumor activity against human SW837 cells assessed as tumor growth inhibition at 60 mg/kg, po once daily for 18 days co-administered with sotorasib relative to control; details: SW837, 432 h, time 18 day, read-out: TGI

## C=CC(=O)N1CCN(c2nc(=O)n(-c3c(C)ccnc3C(C)C)c3nc(-c4c(O)cccc4F)c(F)cc23)[C@@H](C)C1 [SOTORASIB]
[1]
  inhibition at 0.01 µM: 24%
[2]
  inhibition at 0.35 µM: 39%
[3]
  inhibition at 0.012 µM: 20.7%
[4]
  inhibition at 0.04 µM: 27.8%
[5]
  inhibition in vivo at 30 mg/kg: 80%

## C=CCn1c(=O)c2cnc(Nc3ccc(N4CCN(C)CC4)cc3)nc2n1-c1ccc2c(n1)[C@@](O)(CC)CC2 [AZENOSERTIB]
[6]
  Activity: 23%
[7]
  inhibition in vivo at 60 mg/kg: 72%
[8]
  inhibition at 0.12 µM: 53%
[9]
  inhibition at 1 µM: 45.4%
[10]
  inhibition at 0.12 µM: 16.5%
[11]
  inhibition at 1 µM: 47%
[12]
  inhibition at 0.3 µM: 31.5%
[13]
  inhibition at 1 µM: 28.8%
[14]
  inhibition at 1 µM: 76%
[15]
  inhibition at 0.3 µM: 55.6%
[16]
  inhibition in vivo at 60 mg/kg: 109%
